Experimental data published in ChEMBL document CHEMBL1128853, “Zn(II)-chelating inhibitors of carboxypeptidase A” (Bioorg Med Chem Lett, 1995).

Experiment: Binding affinity against Carboxypeptidase A

Compound	Ki [µM]
NC(=O)C(CCSCCS)Cc1ccccc1 (stereo unspecified)	92
CCCCCC(Cc1ccccc1)C(=O)O (stereo unspecified)	620
O=C(CC/C(=N\O)c1ccccn1)NC(Cc1ccccc1)C(=O)O (stereo unspecified)	> 300
CCCSCC(Cc1ccccc1)C(=O)O (stereo unspecified)	340
O=C(O)C(CSCCS)Cc1ccccc1 (stereo unspecified)	4.2
O=C(O)C(CCCCS)Cc1ccccc1 (stereo unspecified)	45
O=C(O)C(Cc1ccccc1)NC/C(=N\O)c1ccccn1 (stereo unspecified)	580
O=C(O)C(CCc1ccccc1S)Cc1ccccc1 (stereo unspecified)	5.8
O=C(O)C(Cc1ccccc1)(Cc1ccccc1)SCCSc1ccccc1	450
O=C(O)C(CSCCSCc1ccccc1)Cc1ccccc1 (stereo unspecified)	660
O=C(NC(Cc1ccccc1)C(=O)O)c1cnccn1 (stereo unspecified)	180
O=C(Nc1ccccc1)C(CSCCS)Cc1ccccc1 (stereo unspecified)	34
O=C(CC(Cc1ccccc1)C(=O)O)c1ccccc1S (stereo unspecified)	4.4
NC(=O)C(CSCCS)Cc1ccccc1 (stereo unspecified)	29
O=C(NC(Cc1ccccc1)C(=O)O)c1ccccn1 (stereo unspecified)	370
O=C(O)C(Cc1ccccc1)SCCS (stereo unspecified)	21
O=C(CC(Cc1ccccc1)C(=O)O)c1ccccn1 (stereo unspecified)	82
O=C(O)CC(CSCCS)Cc1ccccc1 (stereo unspecified)	19
O=C(O)C(Cc1ccccc1)SCCSc1ccccc1 (stereo unspecified)	670
O=C(O)C(C/C(=N\O)c1ccccn1)Cc1ccccc1 (stereo unspecified)	> 300
O=C(O)c1cccc(C(=O)NC(Cc2ccccc2)C(=O)O)n1 (stereo unspecified)	790
